pEC50: −log10 of the molar value. Like-named read-outs stand apart in the source and are kept apart here.
Assays:
5-HT2 receptor = target: T1, 5-HT2 receptor (Rattus norvegicus, UniProt P14842); test: 5-HT2 functional assay: phosphoinositide (PI) turnover; assay type: cell-based; details: for Emax: A7r5 cells, relative to 5-HT set at 100%, read-out: Efficacy (Emax, %) 5-HT2 functional
T1 construct: A7r5 rat vascular smooth muscle cells; endogenous in cells; host or cells: A7r5 rat vascular smooth muscle cells
T1 sequence (P14842 whole entry): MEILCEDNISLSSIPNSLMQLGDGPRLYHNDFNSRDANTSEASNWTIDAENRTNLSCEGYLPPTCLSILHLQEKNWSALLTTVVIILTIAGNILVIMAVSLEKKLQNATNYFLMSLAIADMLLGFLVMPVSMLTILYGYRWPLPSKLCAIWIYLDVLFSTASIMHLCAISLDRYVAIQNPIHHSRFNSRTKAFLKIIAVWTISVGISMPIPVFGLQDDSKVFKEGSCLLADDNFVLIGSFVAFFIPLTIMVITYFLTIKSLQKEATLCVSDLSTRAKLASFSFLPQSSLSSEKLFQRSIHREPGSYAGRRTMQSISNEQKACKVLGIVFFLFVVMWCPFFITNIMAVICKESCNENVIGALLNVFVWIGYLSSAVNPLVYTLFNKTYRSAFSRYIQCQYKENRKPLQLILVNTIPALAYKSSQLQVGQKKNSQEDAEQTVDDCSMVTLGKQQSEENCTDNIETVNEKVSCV
Experimental: 5-HT2 Functional Assay: Phosphoinositide (PI) Turnover Assay
The relative agonist activity of serotonergic compounds at the 5-HT2 receptor can be determined in vitro using the ability of the compounds to stimulate the production of [^3H]inositol phosphates in [^3H]myo-inositol-labeled A7r5 rat vascular smooth muscle cells by their ability to activate the enzyme phospholipase C. These cells are grown in culture plates, maintained in a humidified atmosphere of 5% CO2 and 95% air and fed semi-weekly with Dulbecco's modified Eagle medium (DMEM) containing 4.5 g/l glucose and supplemented with 2 mM glutamine, 10 μg/ml gentamicin, and 10% fetal bovine serum. For the purpose of conducting the phosphoinositide (PI) turnover experiments, the A7r5 cells are cultured in 24-well plates as previously [J. Pharmacol. Expt. Ther., 286, 411 (1998)]. Confluent cells are exposed for 24-30 hrs to 1.5 μCi [^3H]-myo-inositol (18.3 Ci/mmol) in 0.5 ml of serum-free medium. Cells are then rinsed once with DMEM/F-12 containing 10 mM LiCl prior to incubation with the test agent (or solvent as the control) in 1.0 ml of the same medium for 1 hr at 37° C., after which the medium is aspirated and 1 ml of cold 0.1 M formic acid added to stop the reaction. The chromatographic separation of [^3H]-inositol phosphates ([^3H]-IPs) on an AG-1-X8 column is performed as previously described [J. Pharmacol. Expt. Ther. 286, 411 (1998)] with sequential washes with H2O and 50 mM ammonium formate, followed by elution of the total [^3H]-IPs fraction with 1.2 M ammonium formate containing 0.1 M formic acid. The eluate (4 ml) is collected, mixed with 15 ml scintillation fluid, and the total [^3H]-IPs determined by scintillation counting on a beta counter. Concentration-response data are analyzed by the sigmoidal fit function of the Origin Scientific Graphics software (Microcal Software, Northampton, Mass.) to determine agonist potency (EC50 value) and efficacy (Emax). Serotonin (5-HT) is used as a positive control (standard) agonist compound and the efficacy of test compounds is compared to that of 5-HT (set at 100%). The concentration of the compound needed to stimulate the production of [^3H]-IPs by 50% of the maximum response is termed the EC50 value.

intraocular pressure = test: IOP response in lasered (hypertensive) eyes of conscious cynomolgus monkeys; assay type: in vivo, cynomolgus monkey
Experimental: IOP Response in Lasered (Hypertensive) Eyes of Conscious Cynomolgus Monkeys
Intraocular pressure (IOP) was determined with an Alcon Pneumatonometer after light corneal anesthesia with 0.1% proparacaine. Eyes were washed with saline after each measurement. After a baseline IOP measurement, test compound was instilled in one 30 μL aliquot to the right eyes only of nine cynomolgus monkeys. Vehicle was instilled in the right eyes of six additional animals. Subsequent IOP measurements were taken at 1, 3, and 6 hours.

[1] = tested on: photooxidative induced retinopathy; test: Neuroprotective effects in the rat photooxidative induced retinopathy model (ERG); assay type: in vivo, Sprague Dawley rat; details: for A-wave Amplitude Mean / B-wave Amplitude Mean: ERG after five day recovery
Experimental: Neuroprotective Effects in the Rat Photooxidative Induced Retinopathy Model
Male Sprague Dawley rats were randomly assigned to vehicle treatment (saline) or drug treatment (dissolved in saline) experimental groups. α-methyl-5-hydroxytryptamine (1, 5, and 10 mg/kg) or vehicle was administered by subcutaneous (SC) injection at 48, 24, and 0 hours prior to light exposure and once 24 hours after a 6-hour light exposure to spectrally filtered blue light (˜220 fc). Control rats were housed in their home cage under normal cyclic light exposure. Rats were single housed in clear polycarbonate cages during this light exposure.
The electroretinogram (ERG) was recorded after a five day recovery period from dark-adapted anesthetized rats (Ketamine-HCl, 75 mg/Kg; Xylazine, 6 mg/Kg). The eye's electrical response to a flash of light was elicited by viewing a ganzfeld. ERGs to a series of light flashes increasing in intensity were digitized to analyze temporal characteristics of the waveform and determine the response voltage-log intensity (VlogI) relationship. Changes in the ERG a-wave are associated with photoreceptor and retinal pigment epithelium damage while damage to the inner retina is reflected in changes in the ERG b-wave.

[2] = 300 μg topical ocular, 1 hour after dose
[3] = 300 μg topical ocular, 3 hours after dose
[4] = 300 μg topical ocular, 6 hours after dose

Structure (SMILES): CC(N)Cn1ccc2ccc(O)cc21.O=C(O)/C=C/C(=O)O (centres unmarked) [1-(2-aminopropyl) 6-hydroxyindole fumarate]
- Emax (5-HT2 receptor): 86%
- EC50 (5-HT2 receptor; [3H]inositol phosphates, A7r5 rat vascular smooth muscle cells, read-out: EC50, nM (SEM) 5-HT2 functional): 577 nM
- Percent IOP Reduction (intraocular pressure; [2]): 19.1%
- Percent IOP Reduction (intraocular pressure; [3]): 30.1%
- Percent IOP Reduction (intraocular pressure; [4]): 27%

Structure (SMILES): CC(N)Cc1c[nH]c2ccc(O)cc12.O=C(O)/C=C\C(=O)O (stereo not drawn) [α-Methyl 5-hydroxytryptamine maleate, 3-(2-aminopropyl)-1H-indol-5-ol]
- Emax (5-HT2 receptor): 104%
- Maximum a- and b-wave response amplitudes compared with vehicle dosed rats ([1]; 1.0 mg/kg): not significantly different than vehicle dosed rats
- Maximum a- and b-wave response amplitudes, % of control animals ([1]; 1.0 mg/kg): approximately 30%
- A-wave Amplitude Mean ([1]; 1.0 mg/kg SC): 237.8 μV
- B-wave Amplitude Mean ([1]; 1.0 mg/kg SC): 555 μV
- A-wave Amplitude Mean ([1]; 5.0 mg/kg SC): 471.93 μV
- B-wave Amplitude Mean ([1]; 5.0 mg/kg SC): 1123 μV
- A-wave Amplitude Mean ([1]; 10.0 mg/kg SC): 477.7 μV
- B-wave Amplitude Mean ([1]; 10.0 mg/kg SC): 1126 μV
- Protection of retina function against photo-oxidative induced retinopathy ([1]; 1, 5 and 10 mg/kg SC): dose-dependent protection of outer and inner retina function
- Maximum a- and b-wave response amplitudes compared with vehicle dosed rats ([1]; 5 and 10 mg/kg): significantly higher than responses measured in vehicle dosed rats
- Maximum a-wave response amplitude, % of control animals ([1]; 5 and 10 mg/kg, first of 'respectively' values): approximately 58%
- Maximum b-wave response amplitude, % of control animals ([1]; 5 and 10 mg/kg, second of 'respectively' values): ~62%
- Percent IOP Reduction (intraocular pressure; 250 μg topical ocular, 1 hour after dose): 14.2%
- Percent IOP Reduction (intraocular pressure; 250 μg topical ocular, 3 hours after dose): 25.8%
- Percent IOP Reduction (intraocular pressure; 250 μg topical ocular, 6 hours after dose): 30.8%

Structure (SMILES): COc1ccc2[nH]cc(CC(C)N)c2c1.O=C(O)/C=C/C(=O)O (stereo not drawn) [α-Methyl 5-methoxytryptamine fumarate]
- pEC50 (5-HT2 receptor): 6.69
- Emax (5-HT2 receptor): 81%
- Percent IOP Reduction (intraocular pressure; [2]): 14%
- Percent IOP Reduction (intraocular pressure; [3]): 23.5%
- Percent IOP Reduction (intraocular pressure; [4]): 22.6%

Reference: patent US20030114512A1, “Compounds with 5-ht2 and 5-ht1a agonist activity for treating glaucoma” (priority 2002, published 2003)
